Tests used:
Type in all cases: in vivo
[1] = test system: ducksalad (Heteranthera limosa); assay: Test B flooded paddy test, visual plant response rating 0-100; details: 250 g ai/ha, Flood, applied to paddy water, evaluated after 13 days
How it was run: (§1)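 Visual evaluation after 13 days. Water-applied treatment, 3 cm flood depth held constant, plants at 2-leaf stage at treatment.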

[2] = test system: sedge, umbrella (small-flower umbrella sedge, Cyperus difformis); assay: as above; details: 250 g ai/ha, Flood, applied to paddy water, evaluated after 13 days
How it was run: as §1

[3] = test system: barnyardgrass (Echinochloa crusgalli); assay: as above; details: 250 g ai/ha, Flood, applied to paddy water, evaluated after 13 days
How it was run: as §1

rice (Oryza sativa) = assay: as above; details: 250 g ai/ha, Flood, applied to paddy water, evaluated after 13 days
How it was run: as §1

[4] = test system: wheat (Triticum aestivum); assay: Test A preemergence soil spray, visual injury rating 0-100; details: 10 days
How it was run: (§2)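 Directed preemergence spray onto seeded soil or postemergence spray onto 2-10 cm plants (loam plus sand); compound carried in surfactant-containing non-phytotoxic solvent. Injury rated by eye after 10 d greenhouse growth; 0 = no effect, 100 = complete control.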

[5] = test system: ragweed (common ragweed, Ambrosia artemisiifolia); assay: as above; details: 10 days
How it was run: as §2

[6] = test system: ryegrass, Italian (italian ryegrass, Lolium multiflorum); assay: as above; details: 10 days
How it was run: as §2

[7] = test system: barnyardgrass (Echinochloa crus-galli); assay: as above; details: 10 days
How it was run: as §2

kochia (Bassia scoparia) [8] = assay: as above; details: 62 g ai/ha, 10 days, 0 = no effect, 100 = complete control
How it was run: as §2

[9] = test system: blackgrass (Alopecurus myosuroides); assay: as above; details: 10 days
How it was run: as §2

[10] = test system: palmer (palmer amaranth, palmer pigweed, Amaranthus palmeri); assay: as above; details: 10 days
How it was run: as §2

corn (Zea mays) [11] = assay: as above; details: 10 days
How it was run: as §2

[12] = test system: oat, wild (wild oat, Avena fatua); assay: as above; details: 10 days
How it was run: as §2

soybean (Glycine max) [13] = assay: as above; details: 10 days
How it was run: as §2

[14] = test system: green foxtail (Setaria viridis); assay: as above; details: 10 days
How it was run: as §2

[15] = test system: wheat (Triticum aestivum); assay: Test A postemergence application, visual injury rating 0-100
How it was run: as §2

[16] = test system: ragweed (common ragweed, Ambrosia artemisiifolia); assay: as above
How it was run: as §2

[17] = test system: ryegrass, Italian (italian ryegrass, Lolium multiflorum); assay: as above
How it was run: as §2

[18] = test system: barnyardgrass (Echinochloa crus-galli); assay: as above
How it was run: as §2

kochia (Bassia scoparia) [19] = assay: as above
How it was run: as §2

[20] = test system: blackgrass (Alopecurus myosuroides); assay: as above
How it was run: as §2

[21] = test system: galium (catchweed bedstraw, Galium aparine); assay: as above
How it was run: as §2

[22] = test system: palmer (palmer amaranth, palmer pigweed, Amaranthus palmeri); assay: as above
How it was run: as §2

corn (Zea mays) [23] = assay: as above
How it was run: as §2

[24] = test system: oat, wild (wild oat, Avena fatua); assay: as above
How it was run: as §2

[25] = test system: horseweed (Erigeron canadensis); assay: as above
How it was run: as §2

soybean (Glycine max) [26] = assay: as above
How it was run: as §2

[27] = test system: green foxtail (Setaria viridis); assay: as above
How it was run: as §2

[28] = 62 g ai/ha, 0 = no effect, 100 = complete control
[29] = 62 g ai/ha, postemergence, 10 days, 0 = no effect, 100 = complete control
[30] = Postemergence, 16 g ai/ha, greenhouse 10 days, 0 no effect, 100 complete control

COC(=O)C1C=CC(NC(=O)C2(C)CN(c3cc(C)cc(C)c3)C(=O)O2)C1 (stereo not drawn) [Compound 115]
Plant response rating, Ducksalad (0 to 100 scale, 0 is no effect and 100 is complete control) [1]: 80 | Plant response rating, Sedge, Umbrella (0 to 100 scale, 0 is no effect and 100 is complete control) [2]: 0 | Plant response rating, Barnyardgrass (0 to 100 scale, 0 is no effect and 100 is complete control) [3]: 65 | Plant response rating, Rice (0 to 100 scale, 0 is no effect and 100 is complete control) (rice (Oryza sativa)): 25 | Wheat plant response rating ([4]; 16 g ai/ha, 0 to 100 scale): 0 | Wheat plant response rating (0-100) [4, 28]: 30 | Ragweed plant response rating ([5]; 16 g ai/ha, 0 to 100 scale): 0 | Ragweed plant response rating (0-100) [5, 28]: 0 | Ryegrass, Italian plant response rating ([6]; 16 g ai/ha, 0 to 100 scale): 10 | Ryegrass, Italian plant response rating (0-100) [6, 28]: 30 | Barnyardgrass plant response rating ([7]; 16 g ai/ha, 0 to 100 scale): 30 | Barnyardgrass plant response rating (0-100) [7, 28]: 100 | Kochia plant response rating (0-100) (kochia (Bassia scoparia) [8]): 100 | Blackgrass plant response rating ([9]; 16 g ai/ha, 0 to 100 scale): 20 | Blackgrass plant response rating (0-100) [9, 28]: 60 | Pigweed, Palmer plant response rating ([10]; 16 g ai/ha, 0 to 100 scale): 20 | Pigweed, Palmer plant response rating (0-100) [10, 28]: 90 | Corn plant response rating (corn (Zea mays) [11]; 16 g ai/ha, 0 to 100 scale): 0 | Corn plant response rating (0-100) (corn (Zea mays) [11]; [28]): 20 | Oat, Wild plant response rating ([12]; 16 g ai/ha, 0 to 100 scale): 0 | Oat, Wild plant response rating (0-100) [12, 28]: 40 | Soybean plant response rating (soybean (Glycine max) [13]; 16 g ai/ha, 0 to 100 scale): 0 | Soybean plant response rating (0-100) (soybean (Glycine max) [13]; [28]): 0 | Foxtail, Green plant response rating ([14]; 16 g ai/ha, 0 to 100 scale): 0 | Foxtail, Green plant response rating (0-100) [14, 28]: 30 | Wheat plant response rating (0-100) [15, 29]: 80 | Wheat plant response rating (0 to 100 scale) [15, 30]: 30 | Ragweed plant response rating (0-100) [16, 29]: 30 | Ragweed plant response rating (0 to 100 scale) [16, 30]: 0 | Ryegrass, Italian plant response rating (0-100) [17, 29]: 70 | Ryegrass, Italian plant response rating (0 to 100 scale) [17, 30]: 40 | Barnyardgrass plant response rating (0-100) [18, 29]: 100 | Barnyardgrass plant response rating (0 to 100 scale) [18, 30]: 70 | Kochia plant response rating (0-100) (kochia (Bassia scoparia) [19]; [29]): 70 | Kochia plant response rating (0 to 100 scale) (kochia (Bassia scoparia) [19]; [30]): 0 | Blackgrass plant response rating (0-100) [20, 29]: 90 | Blackgrass plant response rating (0 to 100 scale) [20, 30]: 70 | Galium plant response rating (0-100) [21, 29]: 70 | Galium plant response rating (0 to 100 scale) [21, 30]: 60 | Pigweed, Palmer plant response rating (0-100) [22, 29]: 10 | Pigweed, Palmer plant response rating (0 to 100 scale) [22, 30]: 10 | Corn plant response rating (0-100) (corn (Zea mays) [23]; [29]): 100 | Corn plant response rating (0 to 100 scale) (corn (Zea mays) [23]; [30]): 60 | Oat, Wild plant response rating (0-100) [24, 29]: 90 | Oat, Wild plant response rating (0 to 100 scale) [24, 30]: 80 | Horseweed plant response rating (0-100) [25, 29]: 0 | Horseweed plant response rating (0 to 100 scale) [25, 30]: 10 | Soybean plant response rating (0-100) (soybean (Glycine max) [26]; [29]): 60 | Soybean plant response rating (0 to 100 scale) (soybean (Glycine max) [26]; [30]): 40 | Foxtail, Green plant response rating (0-100) [27, 29]: 30 | Foxtail, Green plant response rating (0 to 100 scale) [27, 30]: 10

Source: patent US20260285850A1, “SUBSTITUTED OXAZOLIDINONES AND IMIDAZOLINONES AS HERBICIDES” (FMC CORPORATION, priority 2023, published 2026)
